Data on 29 compounds can be found in US20120172361A1, “TRIAZINE DERIVATIVES AND THEIR THERAPEUTICAL APPLICATIONS” (CALIFORNIA CAPITAL EQUITY, LLC, priority 2009, published 2012).

Structures are written as SMILES.

The assay addresses T1, Aurora-A(h) (Homo sapiens, UniProt O14965).
T1 construct: purchased Millipore (KinaseProfiler service); also Reaction Biology Corp. (Kinase Hotspot)
T1 sequence (O14965 1-403): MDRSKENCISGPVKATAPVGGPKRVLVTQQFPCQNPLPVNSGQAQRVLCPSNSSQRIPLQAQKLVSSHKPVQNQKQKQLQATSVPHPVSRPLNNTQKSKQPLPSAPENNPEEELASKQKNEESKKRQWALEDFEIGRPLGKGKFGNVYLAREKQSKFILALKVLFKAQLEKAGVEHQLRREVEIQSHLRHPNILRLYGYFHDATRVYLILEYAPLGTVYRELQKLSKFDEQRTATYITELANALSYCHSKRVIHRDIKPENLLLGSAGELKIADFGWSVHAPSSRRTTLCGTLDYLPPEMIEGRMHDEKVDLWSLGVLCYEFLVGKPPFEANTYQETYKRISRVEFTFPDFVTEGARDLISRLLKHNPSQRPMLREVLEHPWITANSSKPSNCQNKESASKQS
In words: Aurora-A kinase assay (KinaseProfiler Service Assay Protocols, Millipore; also Kinase Hotspot, Reaction Biology Corp.). Type of assay: biochemical. As to conditions: compound concentration 1 μM. As for the experimental part:
This example illustrated Aurora Kinase Assays of selected Compounds from this invention (referred to Daniele Fancelli et al, J. Med. Chem., 2006, 49 (24), pp 7247-7251). The KinaseProfiler™ Service Assay Protocols (Millipore) were used to test the kinase inhibiting activity of novel compounds from this invention. To do this, the buffer composition was as: 20 mM MOPS, 1 mM EDTA, 0.01% Brij-35, 5% Glycerol, 0.1% β-mercaptoethanol, 1 mg/mL BSA. Test compounds were initially dissolved in DMSO at the desired concentration, then serially diluted to the kinase assay buffer. In a final reaction volume of 25 μL, Aurora-A(h) (5-10 mU) is incubated with 8 mM MOPS pH 7.0, 0.2 mM EDTA, 200 μM LRRASLG (Kemptide), 10 mM MgAcetate and [γ33P-ATP]. The reaction was initiated by the addition of the MgATP mix. After incubation for 40 minute at room temperature, the reaction was stopped by addition of 5 μL of a 3% phosphoric acid solution. 10 μL of the reaction was then spotted onto a P30 filtermat and washed three times for 5 minutes in 50 mM phosphoric acid and once in methanol prior to drying and scintillation counting. Wells containing substrate but no kinase and wells containing a phosphopeptide control were used to set 0% and 100% phosphorylation value, respectively.
Also Kinase Hotspot SM kinase assay was used to test the compounds for IC50 or % inhibitions (Reaction Biology Corp.). Inhibitor IC50 values were determined by titration of compound at the optimal kinase concentration (Kinase EC50).
As usually defined, the inhibition is the percentage by which the read-out fell short of the control. Low values mean a weak effect, high ones a strong effect. For `Cc1cnc(Nc2nc(Sc3ccc(NC(=O)C4CC4)cc3)nc(C3CC3)n2)s1` [Example 59], the inhibition at 1 µM was > 50%.
The result for `CN1CCN(c2nc(Nc3ncc(Cl)s3)nc(Sc3ccc(NC(=O)C4CC4)cc3)n2)CC1` [Example 50] reads > 90%; that for `CN1CCN(c2nc(Nc3cc(C4CC4)[nH]n3)nc(Sc3ccc(NC(=O)C4CC4)cc3)n2)CC1` [Example 53], > 90%.
For `CCc1nc(Nc2cc(C)[nH]n2)nc(Sc2ccc(NC(=O)C3CC3)cc2)n1` [Example 4] the value was > 90%; for `Cc1cnc(Nc2nc(Sc3cccc(N)c3)nc(N3CCN(C)CC3)n2)s1` [Example 49], > 50%.
The result for `CCOC(=O)c1cc(Nc2nc(Sc3ccc(NC(=O)C4CC4)cc3)nc(N3CCN(C)CC3)n2)n[nH]1` [Example 30] reads > 90%; that for `CCC(=O)Nc1ccc(Sc2nc(C3CC3)nc(-n3cc(C)sc3=N)n2)cc1` [Example 110], > 50%.
`Cc1cn(-c2nc(Sc3ccc(NC(=O)C(C)C)cc3)nc(N3CCN(C)CC3)n2)c(=N)s1` [Example 66]: the inhibition at 1 µM was < 50%.
For `CC(C)C(=O)Nc1ccc(Sc2nc(Nc3cc(C4CC4)[nH]n3)nc(C3CC3)n2)cc1` [Example 79] the value was > 90%; for `CCCc1cc(Nc2nc(Sc3ccc(NC(=O)C4CC4)cc3)nc(N3CCN(C)CC3)n2)n[nH]1` [Example 57], < 50%; for `Cc1cc(Nc2nc(Sc3ccc(NC(=O)C4CC4)cc3)nc(C3CC3)n2)n[nH]1` [Example 6], > 90%.
For `CCC(=O)Nc1ccc(Sc2nc(C)nc(Nc3cc(C)[nH]n3)n2)cc1` [Example 86] the value was > 90%; for `Cc1cnc(Nc2nc(N3CCN(C)CC3)nc(N3CCN(C)CC3)n2)s1` [Example 47], < 50%.
For `CN1CCN(c2nc(Nc3nccs3)nc(Sc3ccc(NC(=O)C4CC4)cc3)n2)CC1` [Example 60] the value was < 50%; for `CCCCNc1nc(Nc2cc(C)[nH]n2)nc(Sc2ccc(NC(=O)C3CC3)cc2)n1` [Example 93], > 90%; for `CN1CCN(c2nc(Nc3ccc(Br)cn3)nc(Sc3ccc(NC(=O)C4CC4)cc3)n2)CC1` [Example 123], > 50%.
Take `CC(=O)Nc1ccc(Sc2nc(CC(C)C)nc(-n3cc(C)sc3=N)n2)cc1` [Example 69]: the inhibition at 1 µM is < 50%.
Turning to `CCC(=O)Nc1ccc(Sc2nc(Nc3cc(C)[nH]n3)nc(C3CC3)n2)cc1` [Example 82], the inhibition at 1 µM was > 90%.
For `Cc1cn(-c2nc(Sc3ccc(NC(=O)c4ccccc4)cc3)nc(N3CCN(C)CC3)n2)c(=N)s1` [Example 112] the value was > 50%.
The result for `Cc1cc(Nc2nc(NCCN(C)C)nc(Sc3ccc(NC(=O)C4CC4)cc3)n2)n[nH]1` [Example 91] reads > 90%; that for `Cc1cc(Nc2nc(Sc3ccc(NC(=O)C4CC4)cc3)nc(N3CCN(C)CC3)n2)sn1` [Example 78], < 50%; that for `CCc1nc(Nc2ncc(C)s2)nc(Sc2ccc(NC(=O)C3CC3)cc2)n1` [Example 58], < 50%.
The result for `Cc1cnc(Nc2nc(Sc3ccc(NC(=O)C(C)C)cc3)nc(N3CCN(C)CC3)n2)s1` [Example 71] reads > 90%; that for `CN1CCN(c2nc(Nc3nc4ccccc4[nH]3)nc(Sc3ccc(NC(=O)C4CC4)cc3)n2)CC1` [Example 9], > 50%; that for `Cc1ccnc(Nc2nc(Sc3ccc(NC(=O)C4CC4)cc3)nc(N3CCN(C)CC3)n2)n1` [Example 121], < 50%.
As to `Cc1cn(-c2nc(Sc3ccc(NC(=O)C4CC4)cc3)nc(N3CCN(C)CC3)n2)c(=N)s1` [Example 70], the inhibition at 1 µM is < 50%.
For `CC(=O)Nc1ccc(Sc2nc(CC(C)C)nc(Nc3ncc(C)s3)n2)cc1` [Example 72] the value was < 50%; for `Cc1cc(Nc2nc(Sc3ccc(N)cc3)nc(C3CC3)n2)n[nH]1` [Example 45], > 50%.
On to `CCC(=O)Nc1ccc(Sc2nc(N3CCN(C)CC3)nc(-n3cc(C)sc3=N)n2)cc1` [Example 109], for which the inhibition at 1 µM is < 50%.
